Laboratory results: patent US20110237659A1, “CHROMENONE DERIVATIVES AS TRPV3 ANTAGONISTS” (GLENMARK PHARMACEUTICALS S.A., priority 2008, published 2011)
One block for each compound: values may come before it.

Target: T1, Human TRPV3 (Homo sapiens, UniProt Q8NET8)
T1 construct: expressed in transfected cells; host or cells: CHO cells
T1 sequence (Q8NET8 1-790): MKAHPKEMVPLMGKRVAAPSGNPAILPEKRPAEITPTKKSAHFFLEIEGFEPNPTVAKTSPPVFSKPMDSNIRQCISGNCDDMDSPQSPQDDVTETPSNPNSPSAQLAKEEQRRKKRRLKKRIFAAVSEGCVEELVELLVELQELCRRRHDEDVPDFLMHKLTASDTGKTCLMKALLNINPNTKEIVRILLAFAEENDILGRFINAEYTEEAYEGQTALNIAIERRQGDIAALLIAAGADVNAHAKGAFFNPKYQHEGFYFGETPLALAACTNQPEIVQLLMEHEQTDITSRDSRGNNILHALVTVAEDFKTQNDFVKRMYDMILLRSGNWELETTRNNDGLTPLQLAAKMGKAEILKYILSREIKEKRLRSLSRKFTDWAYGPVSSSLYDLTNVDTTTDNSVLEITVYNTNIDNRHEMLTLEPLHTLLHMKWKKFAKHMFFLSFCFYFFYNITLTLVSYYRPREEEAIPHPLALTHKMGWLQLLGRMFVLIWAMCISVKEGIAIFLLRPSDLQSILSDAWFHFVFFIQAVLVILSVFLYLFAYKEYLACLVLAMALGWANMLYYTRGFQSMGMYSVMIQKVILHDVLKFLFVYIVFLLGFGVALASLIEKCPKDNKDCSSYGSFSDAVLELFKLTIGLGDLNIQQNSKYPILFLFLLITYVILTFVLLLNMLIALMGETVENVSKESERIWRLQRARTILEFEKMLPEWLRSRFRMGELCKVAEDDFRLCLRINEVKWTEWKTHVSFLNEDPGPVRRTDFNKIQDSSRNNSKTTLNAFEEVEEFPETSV
Assay: 45Calcium uptake assay: inhibition of 2-APB induced cellular uptake of radioactive calcium in human TRPV3 expressing CHO cells
Format: cell-based
Conditions: 2-APB 500 μM; for inhibition at 1 µM: 1.0 μM test compound, read-out: Percentage inhibition at 1.0 μM; for inhibition at 10 µM: 10.0 μM test compound, read-out: Percentage inhibition at 10.0 μM
Excerpt: The illustrative examples of the present invention are screened for TRPV3 activity according to a modified procedure described in (a) Tóth, A. et al. Life Sciences 2003, 73, 487-498. (b) McNamara C, R. et al. Proc. Natl. Acad. Sci. U.S.A., 2007, 104, 13525-13530. The screening of the compounds can be carried out by other methods and procedures known to persons skilled in the art.
Screening for TRPV3 Antagonist Using the ^45Calcium Uptake Assay
The inhibition of TRPV3 receptor activation was followed as inhibition of 2-aminoethxydiphenylborate (2-APB) induced cellular uptake of radioactive calcium. Test compounds were dissolved in dimethyl sulfoxide (DMSO) to prepare 20 mM stock solution and then diluted using plain medium with DMEM/F-12 containing 1.8 mM CaCl2 to get desired concentration. Final concentration of DMSO in the reaction was 0.5% (v/v). Human TRPV3 expressing CHO cells were grown in DMEM/F-12 medium with 10% FBS, 1% penicillin-streptomycin solution, 400 μg/mL of G-418. Cells were seeded 24 h prior to the assay in 96 well plates so as to get ˜50,000 cells per well on the day of experiment. Cells were treated with test compounds for 10 minutes followed by addition of 2-APB at a final concentration of 500 μM and 5 μCi/mL ^45Ca^+2 for 4 minutes. Cells were washed and lysed using buffer containing 1% Triton X-100, 0.1% deoxycholate and 0.1% SDS. Radioactivity in the lysate was measured in Packardt Top count after addition of liquid scintillant. Concentration response curves were plotted as a % of maximal response obtained in the absence of test antagonist. IC50 value was calculated from concentration response curve by nonlinear regression analysis using GraphPad PRISM software.
Percentage inhibition at concentrations of 1.0 μM and 10.0 μM are given in the table along with IC50 (nM) values for selected examples.

SMILES: COc1cccc(/C=C/c2oc3ccccc3c(=O)c2-c2ccc(C(F)(F)F)cc2)c1OCC1CC1 [Example 2, 2-[(E)-2-(2-Cyclopropylmethoxy-3-methoxyphenyl)-1-ethenyl]-3-(4-trifluoromethyl-phenyl)-4H-4-chromenone]
inhibition at 1 µM: 63.1%
inhibition at 10 µM: 75.4%
IC50: 150 to 1000 nM

SMILES: COc1cccc(/C=C/c2oc3cc(F)ccc3c(=O)c2-c2ccc(C#N)cc2)c1OCC1CC1 [Example 10, 4-{2-[(E)-2-(2-Cyclopropylmethoxy-3-methoxyphenyl)-1-ethenyl]-7-fluoro-4-oxo-4H-3-chromenyl}benzonitrile]
inhibition at 1 µM: 87.3%
inhibition at 10 µM: 95.6%
IC50: 150 to 1000 nM

SMILES: COc1cccc(/C=C/c2oc3ccccc3c(=O)c2-c2ccc(OC(F)(F)F)cc2)c1OCC1CC1 [Example 1, 2-[(E)-2-(2-Cyclopropylmethoxy-3-methoxyphenyl)-1-ethenyl]-3-(4-trifluoromethoxy-phenyl)-4H-4-chromenone]
inhibition at 1 µM: 36.7%
inhibition at 10 µM: 62.2%

SMILES: COc1cccc(/C=C/c2oc3ccccc3c(=O)c2-c2ccc(C#N)cc2)c1OCC(C)C [Example 8, 4-{2-[(E)-2-[2-Isobutoxy-3-methoxyphenyl)-1-ethenyl]-4-oxo-4H-3-chromenyl}benzonitrile]
inhibition at 1 µM: 89.3%
inhibition at 10 µM: 96.4%
IC50: 50 to 150 nM

SMILES: COc1cccc(/C=C/c2oc3c(F)cc(F)cc3c(=O)c2-c2ccc(C#N)cc2)c1OCC1CC1 [Example 22, 4-{2-[(E)-2-(2-Cyclopropylmethoxy-3-methoxyphenyl)-1-ethenyl]-6,8-difluoro-4-oxo-4H-3-chromenyl}benzonitrile]
inhibition at 1 µM: 40%
inhibition at 10 µM: 73%

SMILES: COc1cccc(/C=C/c2oc3cc(F)ccc3c(=O)c2-c2ccc(C#N)cc2)c1OCCC(F)(F)F [Example 14, 4-(7-Fluoro-2-{(E)-2-[3-methoxy-2-(3,3,3-trifluoropropoxy)phenyl]-1-ethenyl}-4-oxo-4H-3-chromenyl)benzonitrile]
inhibition at 1 µM: 96%
inhibition at 10 µM: 98.7%
IC50: 150 to 1000 nM

Results, then the compound that gave them:

inhibition at 1 µM: 79.3%
inhibition at 10 µM: 94.1%
IC50: 150 to 1000 nM
SMILES: COc1cccc(/C=C/c2oc3ccc(F)cc3c(=O)c2-c2ccc(C#N)cc2)c1OCC1CC1 [Example 15, 4-{2-[(E)-2-(2-Cyclopropylmethoxy-3-methoxyphenyl)-1-ethenyl]-6-fluoro-4-oxo-4H-3-chromenyl}benzonitrile]

inhibition at 1 µM: 78.2%
inhibition at 10 µM: 89.8%
IC50: 150 to 1000 nM
SMILES: COc1cccc(/C=C/c2oc3ccc(F)cc3c(=O)c2-c2ccc(C#N)cc2)c1OCC1CCC1 [Example 17, 4-{2-[(E)-2-(2-Cyclobutylmethoxy-3-methoxyphenyl)-1-ethenyl]-6-fluoro-4-oxo-4H-3-chromenyl}benzonitrile]

inhibition at 1 µM: 90.4%
inhibition at 10 µM: 94.5%
IC50: 150 to 1000 nM
SMILES: COc1cccc(/C=C/c2oc3ccccc3c(=O)c2-c2ccc(C#N)cc2)c1OCC1CC1 [Example 3, 4-{2-[(E)-2-(2-Cyclopropylmethoxy-3-methoxyphenyl)-1-ethenyl]-4-oxo-4H-3-chromenyl}benzonitrile]

inhibition at 1 µM: 71.8%
inhibition at 10 µM: 90.3%
IC50: 150 to 1000 nM
SMILES: COc1cccc(/C=C/c2oc3ccccc3c(=O)c2-c2ccc(C#N)cc2)c1OC1CCCC1 [Example 5, 4-{2-[(E)-2-(2-Cyclopentyloxy-3-methoxyphenyl)-1-ethenyl]-4-oxo-4H-3-chromenyl}benzonitrile]

inhibition at 1 µM: 94.5%
inhibition at 10 µM: 98%
IC50: 50 to 150 nM
SMILES: COc1cccc(/C=C/c2oc3ccccc3c(=O)c2-c2ccc(C#N)cc2)c1OCCC(F)(F)F [Example 9, 4-(2-{(E)-2-[3-Methoxy-2-(3,3,3-trifluoropropoxy)phenyl]-1-ethenyl}-4-oxo-4H-3-chromenyl}benzonitrile]
